Test results reported in PubChem BioAssay (NCI).
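Exposure lasted 48 hours, with cells grown in 96-well plates and compounds tested at five concentrations. TGI: total growth inhibition.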 Where a SMILES comes first, the peptide text is derived from it.

Experiments:
Experiment in all cases: inhibition of tumour cell growth, NCI panel, 48 h
786-0 renal = tested on: 786-0 renal
A498 renal = tested on: A498 renal
A549 NSCLC = tested on: A549 NSCLC
ACHN renal = tested on: ACHN renal
BT-549 breast = tested on: BT-549 breast
CAKI-1 renal = tested on: CAKI-1 renal
CCRF-CEM leukemia = tested on: CCRF-CEM leukemia
COLO 205 colon = tested on: COLO 205 colon
DU-145 prostate = tested on: DU-145 prostate
EKVX NSCLC = tested on: EKVX NSCLC
HCT-116 colon = tested on: HCT-116 colon
HCT-15 colon = tested on: HCT-15 colon
HL-60(TB) leukemia = tested on: HL-60(TB) leukemia
HOP-62 NSCLC = tested on: HOP-62 NSCLC
HOP-92 NSCLC = tested on: HOP-92 NSCLC
HS 578T breast = tested on: HS 578T breast
HT29 colon = tested on: HT29 colon
IGROV1 ovarian = tested on: IGROV1 ovarian
K-562 leukemia = tested on: K-562 leukemia
KM12 colon = tested on: KM12 colon
LOX IMVI melanoma = tested on: LOX IMVI melanoma
M14 melanoma = tested on: M14 melanoma
MALME-3M melanoma = tested on: MALME-3M melanoma
MCF7 breast = tested on: MCF7 breast
MDA-MB-231 breast = tested on: MDA-MB-231 breast
MDA-MB-435 = tested on: MDA-MB-435
MDA-N = tested on: MDA-N
MOLT-4 leukemia = tested on: MOLT-4 leukemia
NCI-H226 lung = tested on: NCI-H226 lung
NCI-H23 lung = tested on: NCI-H23 lung
NCI-H522 lung = tested on: NCI-H522 lung
NCI/ADR-RES ovarian = tested on: NCI/ADR-RES ovarian
OVCAR-3 ovarian = tested on: OVCAR-3 ovarian
OVCAR-4 ovarian = tested on: OVCAR-4 ovarian
OVCAR-5 ovarian = tested on: OVCAR-5 ovarian
OVCAR-8 ovarian = tested on: OVCAR-8 ovarian
PC-3 prostate = tested on: PC-3 prostate
RPMI-8226 leukemia = tested on: RPMI-8226 leukemia
SF-268 CNS = tested on: SF-268 CNS
SF-295 CNS = tested on: SF-295 CNS
SF-539 CNS = tested on: SF-539 CNS
SK-MEL-2 melanoma = tested on: SK-MEL-2 melanoma
SK-MEL-28 melanoma = tested on: SK-MEL-28 melanoma
SK-MEL-5 melanoma = tested on: SK-MEL-5 melanoma
SK-OV-3 ovarian = tested on: SK-OV-3 ovarian
SN12C renal = tested on: SN12C renal
SNB-19 CNS = tested on: SNB-19 CNS
SR leukemia = tested on: SR leukemia
SW-620 colon = tested on: SW-620 colon
T-47D breast = tested on: T-47D breast
TK-10 renal = tested on: TK-10 renal
U251 CNS = tested on: U251 CNS
UACC-257 melanoma = tested on: UACC-257 melanoma
UACC-62 melanoma = tested on: UACC-62 melanoma
UO-31 renal = tested on: UO-31 renal

Measured: TGI

CCC(C)C(NC(=O)C(CC(C)C)NC(=O)CNC(=O)C(NC(=O)C1CCCN1C(=O)C(CC(C)C)NC(=O)C(N)Cc1ccccc1)C(C)CC)C(=O)NC(CC(C)C)C(N)=O (stereo not given) (H-FLPIGLIL-NH2; configuration not given here)
> 75 µM: 786-0 renal | A498 renal | A549 NSCLC | ACHN renal | BT-549 breast | CAKI-1 renal | CCRF-CEM leukemia | COLO 205 colon | DU-145 prostate | EKVX NSCLC | HCT-116 colon | HCT-15 colon | HL-60(TB) leukemia | HOP-62 NSCLC | HOP-92 NSCLC | HS 578T breast | HT29 colon | IGROV1 ovarian | K-562 leukemia | KM12 colon | LOX IMVI melanoma | M14 melanoma | MALME-3M melanoma | MCF7 breast | MDA-MB-231 breast | MDA-MB-435 | MDA-N | MOLT-4 leukemia | NCI-H226 lung | NCI-H23 lung | NCI-H522 lung | NCI/ADR-RES ovarian | OVCAR-3 ovarian | OVCAR-4 ovarian | OVCAR-5 ovarian | OVCAR-8 ovarian | PC-3 prostate | RPMI-8226 leukemia | SF-268 CNS | SF-295 CNS | SF-539 CNS | SK-MEL-2 melanoma | SK-MEL-28 melanoma | SK-MEL-5 melanoma | SK-OV-3 ovarian | SN12C renal | SNB-19 CNS | SR leukemia | SW-620 colon | T-47D breast | TK-10 renal | U251 CNS | UACC-257 melanoma | UACC-62 melanoma | UO-31 renal
